Here are results for one compound from patent publication US20150259371A1, “METHODS AND COMPOUNDS FOR INHIBITING GLYCOSYLTRANSFERASES” (SIMON FRASER UNIVERSITY, priority 2010, published 2015).

The subject of experiment [1] is UDP-sugar nucleotide pools in COS-7 cells. As to the kind of experiment: UDP-sugar pools extracted from treated COS-7 cells, capillary electrophoresis. The format is cell-based, African green monkey. Here is the method: Capillary electrophoresis (CE): CE was performed on a ProteomeLab PA800 (Beckman-Coulter) using fused silica capillaries of […]×44 cm (to detector). The running buffer was 40 mM Na2B4O7 (Sigma), pH 9.5, containing 1.0% (wv) polyethylene glycol (MW 20,000; Fluka) and filtered prior to use. The capillary was conditioned by washing with 1 N NaOH (2 min, 20 psi), 18 MΩ H2O (3 min, 20 psi) and running buffer (5 min, 40 psi). After injecting a short (15 nL) H2O plug, samples were electrostatically introduced and pre-concentrated at the anode by applying a potential of -0.5 kV for 10 s according to the field-amplified sample injection technique described by Chien and Burgi^39. Electrophoresis was carried out at a constant voltage of 30 kV and capillary temperature of 22° C. Electropherograms were derived by measuring the absorbance at 254 (+/−10) nm at a rate of 4 Hz. Peaks were integrated using 32 Karat 5.0 software (Beckman-Coulter) and all peaks were normalized to the GDP-Glc internal standard.
Extraction of nucleotide sugars from cell lysates: COS-7 cells, on 10 cm plates, were treated with 0, 50, 250 or 1000 μM Ac-5SGlcNAc for 24 h; each condition was performed in triplicate. Cells were washed gently with PBS prior to the addition of 1 mL PBS containing 10 mM EDTA. Cells were incubated at 37° C. for […], the cells scraped from the plate, and pelleted by centrifugation (1000 rpm, 10 min, 4° C.). Cell pellets were immediately lysed by the addition of 750 μL 75% (vv) ethanol (−20° C.) and sonicated using a W-375 ultrasonic processor (Heat Systems Ultrasonics, Inc.). Insoluble material was removed by centrifugation (14,000 rpm, 15 min, 4° C.) and the supernatant was snap frozen and lyophilized^44,45. The crude extract was spiked with GDP-Glc (200 pmol) as an internal standard, dissolved in 0.5 mL 18 MΩ H2O and nucleotide sugars extracted using Envi-Carb graphite solid-phase extraction cartridges (200 mg) (Supelco) as described by Räbinä et al^38. Briefly, Envi-Carb cartridges were conditioned with 80% (vv) CH3CN and 20% 0.1% (vv) TFA (3 mL), followed by 18 MΩ H2O (6 mL), before samples were applied. After passing the samples through the SPE cartridge, the cartridge was sequentially washed with 2 mL of each of 18 MΩ H2O, 25% (vv) CH3CN, and 50 mM triethylammonium acetate (TEAA), pH 7.0. Sugar nucleotides were eluted with 3×1 mL 25% CH3CN in 50 mM TEAA, pH 7.0, passed through a 0.22 μm filter (Millipore), lyophilized, and stored at −20° C. until analysis. Extracted sugar nucleotides were dissolved in 200 μL 18 MΩ H2O and an aliquot was diluted 1:4 prior to characterization by CE using a method adapted from Feng et al^46.

In another experiment the test system is transcription factor Sp1. As to the kind of experiment: Western blot of Sp1 levels in CHO cells. It counts as cell-based, Chinese hamster. As to conditions: 50 μM, 4 days. How it is done: (A) Cell proliferation curves over the course of 5 days for CHO cells following no (circles), 50 μM Ac-GlcNAc (squares) or 50 μM Ac-5SGlcNAc (triangles) treatment. The error bars indicate the deviation from the mean for triplicate measurements. […] Upper panel, probed with anti-O-GlcNAc antibody (CTD110.6); lower panel, probed with anti-actin antibody. (B) Cell proliferation curves over the course of 5 days for EMEG heterozygous mouse embryonic fibroblast cells following no (circles), 50 μM Ac-GlcNAc (squares) or 50 μM Ac-5SGlcNAc (triangles) treatment. The error bars indicate the deviation from the mean for triplicate measurements. […] Upper panel, probed with anti-O-GlcNAc antibody (CTD110.6); lower panel, probed with anti-actin antibody. (C) Western blots of CHO cell lysates following no (C) or Ac-5SGlcNAc administration at 50 μM for 4 days. Probed with (from top to bottom) anti-Spl antibody, anti O-GlcNAc (CTD110.6) antibody and anti-actin antibody. Full blot of the anti-Sp 1 is shown in panel (d). […]
Cellular responses to Ac-5SGlcNAc (9) treatment and consequent decreases in O-GlcNAc levels were evaluated. […] We quantitatively evaluated cell proliferation and established growth curves over the course of 5 days in both CHO and EMEG32 heterozygous mouse embryonic fibroblast cells treated with 50 μM Ac-5SGlcNAc (9), 50 μM Ac-GlcNAc (G), or vehicle (FIGS. 5A-B).

Turning to `CC(=O)NC1C(OC(C)=O)SC(COC(C)=O)C(OC(C)=O)C1OC(C)=O` [Compound 9, N-Acetyl-1,3,4,6-tetra-O-acetyl-α-D-5-thio-glucosamine], the “UDP-GlcNAc levels relative to basal” value in experiment [1] (50 μM) is recorded as “more than 60 % of basal levels”. Besides, in experiment [1] (COS-7, 0-1000 μM, 24 h), the “UDP-Glc and UDP-Gal levels in cells” value is “uridine diphosphoglucose and uridine diphosphogalactose levels are unaffected”; the “UDP-GlcNAc levels in cells” value is “small decrease in UDP-GlcNAc levels”; the “amount of UDP-5SGlcNAc in cells” value is “dose dependent increase in the amount of UDP-5SGlcNAc in cells”. The Sp1 levels entry with transcription factor Sp1 was “decreases were observed in the levels of transcription factor Sp1”.
